Measured values published in patent publication US20250186600A1, “EXCIPIENT COMPOUNDS FOR PROTEIN FORMULATIONS” (Comera Life Sciences, Inc., priority 2020, published 2025).

Columns and labels:
ustekinumab [1] = assay: Stabilization at low pH, Sypro orange fluorescence (Example 45); conditions: excipient 5 mg/mL, ustekinumab 1 mg/mL, glycine acidification buffer pH 2.6, Sypro orange fluorescence
omalizumab [2] = assay: Freeze-thaw stability, light scattering at 350 nm (Example 48); format: physicochemical; conditions: excipient 5 mg/mL, omalizumab 5 mg/mL, 20 mM histidine pH 6.0, at least 5 freeze (−80° C.)/thaw cycles
[3] = system: bovine gamma globulin (BGG); assay: Normalized viscosity of BGG with caffeine and a secondary excipient (Example 40); format: physicochemical; conditions: BGG about 280 mg/mL, 20 mM histidine pH 6, 25° C.
ustekinumab [4] = assay: Urea denaturation, Sypro orange fluorescence (Example 44); format: physicochemical; conditions: excipient 5 mg/mL, ustekinumab 1 mg/mL, 6M urea, 20 mM histidine pH 6.0, Sypro orange fluorescence
Description: It is known that urea denatures proteins in solution and causes them to unfold. The screening methodology in this example involved adding a specific concentration of urea to a therapeutic protein solution such as ustekinumab. […] One method to track protein unfolding involves the use of extrinsic fluorescent dyes such as Sypro orange. Sypro orange binds to hydrophobic regions in the unfolded protein structure, leading to an increase in the fluorescence signal observed. Measuring the differences in the fluorescence intensity of unfolded protein-Sypro orange complex in presence of different excipients thus allows one to identify any stabilizing effects.
All excipients used in this Example, listed in Table 45 below, were of the highest purity, and were obtained from Sigma Aldrich (St. Louis, MO) or Cayman Chemical (Ann Arbor, MI). […] This urea stock solution was then added to a final concentration of 6M to produce the test solutions (excipient plus protein plus urea). […] The pH of the mixture was rechecked and confirmed to be at pH 6.0. The test solutions were allowed to incubate at room temperature for 30 min.

omalizumab [5] = assay: Freeze/thaw stress (6 cycles), monomer by SE-HPLC (Example 57); format: physicochemical; conditions: excipient 100 mM, omalizumab 2 mg/mL, 20 mM Histidine pH 6.0, freeze (−80° C.)/thaw
Procedure: Therapeutic proteins are frequently kept at low temperatures to improve their kinetic stability and minimize structural perturbations that could lead to the aggregation of the protein and a decrease in the active native species. In certain cases, this might be done by freezing the formulation until use. However, the low temperatures, concentration gradients, and ice formation during repeated freezing and thawing can stress the protein. […] The formulations were then aliquoted into 0.5 mL cryovials and frozen at −80° C. for 120 min. The samples were then thawed using a water bath kept at room temperature.

infliximab = assay: Thermal stability at 50° C. with caffeine and excipients, SE-HPLC (Example 63); format: physicochemical; conditions: excipient 0.5 M, caffeine 50 mM, infliximab 10 mg/mL, 5 mM phosphate pH 7.5, 50° C., 180 min
Procedure: Therapeutic proteins stress leads to aggregation of the protein and a decrease in the active native species. […] The aliquots were withdrawn at 0 min, 90 min and 180 min. […] Diode array detector.

[6] = Caffeine solubility with co-solutes during refrigerated storage (Example 61); format: physicochemical; parameters: key: (PPT)—precipitate observed; (—)—clear solution observed; conditions: 50 mM co-solute, 25 mM histidine pH 6, stored 2 to 5° C.
Procedure: The resulting microplates were then sealed with microplate tape and stored in a refrigerator with the temperature maintained in the range of 2 to 5° C. Over the course of storage, the microplates were visually observed for evidence of precipitate in the well.

[7] = Excipient A caffeine 15 mg/mL + Excipient B 20 mg/mL

Which results are given for `O=C(CO)[C@H](O)[C@H](O)[C@H](O)CO` [Psicose]?
% change in stability (ustekinumab [1]): 1.1%; % reduction in light scattering at 350 nm vs. control (omalizumab [2]): 15.3%

With `CC(C)C[C@H](N)C(=O)O` [Leucine] as the compound, how does the “Normalized Viscosity” value [3, 7] read?
The value was 0.69.

What does the source list for `OC[C@@H](O)[C@H](O)[C@@H](O)CO` [Xylitol]?
% change in stability (ustekinumab [1]): 0.4%; % increased stability (ustekinumab [4]): 6.3%; % reduction in light scattering at 350 nm vs. control (omalizumab [2]): 10.7%

For `OC[C@H](O)[C@@H](O)[C@H](O)[C@@H](O)CO` [Iditol], which “% change in stability” value (ustekinumab [1]) is on record?
The value was 11.6%.

And the “% reduction in light scattering at 350 nm vs. control” value (shortened to “% reduction in light scattering”) (omalizumab [2])?
Its value is 11.7%.

For `CC(=O)N[C@@H]1C(O)O[C@H](CO)[C@@H](O)[C@@H]1O` (stereo partly shown) [N-acetyl mannosamine], which “% increase in monomer content vs. control” value (omalizumab [5]) is on record?
The value was 6.63%.

For `O[C@H]1[C@H](O)[C@@H](O)[C@H](O)[C@@H](O)[C@H]1O` [Inositol], which “% change compared to control” value (infliximab) is on record?
Its value is 58.9%.

Which “% change compared to control” value (infliximab) does the source give for `O=C(O)[C@@H]1C[C@@H](O)CN1` [Hydroxyproline] here?
The value was 67.3%.

For `CCO` [Ethanol], which “Normalized Viscosity” value ([3]; Excipient A caffeine 15 mg/mL + Excipient B 22 mg/mL) is on record?
Its value is 0.65.

Which “Normalized Viscosity” value ([3]; Excipient A caffeine 15 mg/mL + Excipient B 25 mg/mL) does the source give for `CS(C)(=O)=O` [Dimethyl sulfone, dimethyl sulfone] here?
Its value is 0.65.

For `O=C1O[C@H]([C@@H](O)CO)C(O)=C1O[C@H]1O[C@H](CO)[C@@H](O)[C@H](O)[C@H]1O` [Ascorbyl glucoside], which “% change compared to control” value (infliximab) is on record?
Its value is 45.8%.

For `OC[C@H]1O[C@H](O[C@H]2[C@H](O)[C@@H](O)C(O)O[C@@H]2CO)[C@H](O)[C@@H](O)[C@@H]1O` (mixture of isomers) [Maltose], which “% change compared to control” value (infliximab) is on record?
Its value is 9.65%.

Which results are given for `OC[C@H]1O[C@H](OC[C@H]2O[C@H](O[C@]3(CO)O[C@H](CO)[C@@H](O)[C@@H]3O)[C@H](O)[C@@H](O)[C@@H]2O)[C@H](O)[C@@H](O)[C@H]1O` [Raffinose]?
% change in stability (ustekinumab [1]): 2.6%; % increased stability (ustekinumab [4]): 1.7%; % reduction in light scattering at 350 nm vs. control (omalizumab [2]): 3.7%

Which “% reduction in light scattering” value (omalizumab [2]) does the source give for `O=C(O)CN(CCN(CC(=O)O)CC(=O)O)CCN(CC(=O)O)CC(=O)O` [DTPA] here?
The value was 17.2%.

Which “% reduction in light scattering” value (omalizumab [2]) does the source give for `OC[C@H]1O[C@@](CO)(O[C@H]2O[C@H](CO)[C@@H](O)[C@H](O)[C@H]2O)[C@@H](O[C@H]2O[C@H](CO)[C@@H](O)[C@H](O)[C@H]2O)[C@@H]1O` [Melezitose] here?
The value was 7.4%.

For `O=C(CO)[C@@H](O)[C@H](O)[C@H](O)[C@H](O)CO` [seduheptalose], which “% reduction in light scattering” value (omalizumab [2]) is on record?
Its value is 16.0%.

With `OC[C@@H](O)[C@@H](O)[C@H](O)[C@H](O)CO` [Mannitol] as the compound, how does the “% reduction in light scattering” value (omalizumab [2]) read?
The value was 17.8%.

With `N[C@@H](Cc1ccccc1)C(=O)O` [Phenylalanine] as the compound, how does the “Day 1 (visual observation for precipitate)” value ([6]; caffeine 7.5 mg/mL) read?
The value was “—”.

And the “Day 7 (visual observation for precipitate)” value ([6]; caffeine 7.5 mg/mL)?
The value was “—”.

And the “Day 18 (visual observation for precipitate)” value ([6]; caffeine 7.5 mg/mL)?
The value was “—”.

And the “Day 27 (visual observation for precipitate)” value ([6]; caffeine 7.5 mg/mL)?
The value was “—”.

What about the “Day 56 (visual observation for precipitate)” value ([6]; caffeine 7.5 mg/mL) of the same compound?
Its value is “—”.

And the “Day 1 (visual observation for precipitate)” value ([6]; caffeine 10 mg/mL)?
The value was “—”.

What about the “Day 7 (visual observation for precipitate)” value ([6]; caffeine 10 mg/mL) of the same compound?
The value was “—”.

What about the “Day 18 (visual observation for precipitate)” value ([6]; caffeine 10 mg/mL) of the same compound?
Its value is “—”.

What about the “Day 27 (visual observation for precipitate)” value ([6]; caffeine 10 mg/mL) of the same compound?
Its value is “—”.

What about the “Day 56 (visual observation for precipitate)” value ([6]; caffeine 10 mg/mL) of the same compound?
The value was “—”.

What about the “Day 1 (visual observation for precipitate)” value ([6]; caffeine 12.5 mg/mL) of the same compound?
Its value is “—”.

What about the “Day 7 (visual observation for precipitate)” value ([6]; caffeine 12.5 mg/mL) of the same compound?
Its value is “—”.

And the “Day 18 (visual observation for precipitate)” value ([6]; caffeine 12.5 mg/mL)?
The value was “—”.

What about the “Day 27 (visual observation for precipitate)” value ([6]; caffeine 12.5 mg/mL) of the same compound?
The value was “—”.

What about the “Day 56 (visual observation for precipitate)” value ([6]; caffeine 12.5 mg/mL) of the same compound?
The value was “—”.

And the “Day 1 (visual observation for precipitate)” value ([6]; caffeine 15 mg/mL)?
The value was “—”.

And the “Day 7 (visual observation for precipitate)” value ([6]; caffeine 15 mg/mL)?
Its value is “—”.

And the “Day 18 (visual observation for precipitate)” value ([6]; caffeine 15 mg/mL)?
The value was “—”.

And the “Day 27 (visual observation for precipitate)” value ([6]; caffeine 15 mg/mL)?
The value was “—”.

What about the “Day 56 (visual observation for precipitate)” value ([6]; caffeine 15 mg/mL) of the same compound?
Its value is “PPT”.

And the “Day 1 (visual observation for precipitate)” value ([6]; caffeine 20 mg/mL)?
The value was “—”.

What about the “Day 7 (visual observation for precipitate)” value ([6]; caffeine 20 mg/mL) of the same compound?
The value was “PPT”.

And the “Day 18 (visual observation for precipitate)” value ([6]; caffeine 20 mg/mL)?
Its value is “PPT”.

And the “Day 27 (visual observation for precipitate)” value ([6]; caffeine 20 mg/mL)?
Its value is “PPT”.

What about the “Day 56 (visual observation for precipitate)” value ([6]; caffeine 20 mg/mL) of the same compound?
Its value is “PPT”.

And the “Normalized Viscosity” value [3, 7]?
The value was 0.60.

For `O.O.[Ca+2].[Cl-].[Cl-]` [CaCl2 dihydrate], which “Normalized Viscosity” value ([3]; Excipient A caffeine 15 mg/mL + Excipient B 15 mg/mL) is on record?
Its value is 0.65.

For Maltotriose, which “% change compared to control” value (infliximab) is on record?
The value was 12.6%.

Which results are given for `NC(=O)c1ccncc1` [Isonicotinamide]?
% change in stability (ustekinumab [1]): 65.4%; % reduction in light scattering at 350 nm vs. control (omalizumab [2]): 4.8%

Which “Normalized Viscosity” value [3, 7] does the source give for `N[C@@H](CC(=O)O)C(=O)O` [Aspartic acid] here?
Its value is 0.73.

For `C[N+](C)(C)[O-]` [Trimethyl amine N-oxide], which “% change compared to control” value (infliximab) is on record?
Its value is 10.9%.

With `CC(=O)[O-].[Na+]` [Sodium acetate] as the compound, how does the “Normalized Viscosity” value ([3]; Excipient A caffeine 15 mg/mL + Excipient B 12 mg/mL) read?
The value was 0.77.

For `O=P(O)(O)C(O)(Cc1cccnc1)P(=O)(O)O` [Risedronate], which “% change compared to control” value (infliximab) is on record?
The value was 46.2%.

What does the source list for `CNC[C@H](O)[C@@H](O)[C@H](O)[C@H](O)CO` [Meglumine]?
% change in stability (ustekinumab [1]): 41.8%; % reduction in light scattering at 350 nm vs. control (omalizumab [2]): 15.3%
